The data set can be described thus: Release of lidocaine dissolved in oil through the silicone balloon wall of device 20. The format is physicochemical. The protocol:
Experiments were performed using Lidocaine dissolved in oily substances using two different expansion volumes (one with 10 ml, the other with 16 ml) of the balloon of the device 20.
A. The balloon was expanded by injection of 10 ml of the oily solution into the balloon. A series of 4 experiments using lidocaine dissolved in oil was performed. The results were as follows: • 1. After 28 days—436 mg out of 500 mg was released. • 2. After 29 days—all the 500 mg was released (out of 500 mg). • 3. After 22 days—all the 500 mg was released (out of 500 mg). • 4. After 63 days—all the 1000 mg was released (out of 1000 mg).
B. The balloon was expanded by injection of 16 ml of the oily solution into the balloon. 2 groups and a series of 3 experiments using lidocaine dissolved in oil were performed. The results were as follows: • 1. After 21 days: —all the 500 mg was released (out of 500 mg) • […] was released, out of 1000 mg • 1086 mg was released, out of […] • 2. After 84 days—all the 500 mg was released (out of 500 mg) • all the 1000 mg was released (out of 1000 mg) • all the 1500 mg was released (out of 1500 mg)

With `CCN(CC)CC(=O)Nc1c(C)cccc1C` [Lidocaine], the “release through the silicone balloon wall” value (Lidocaine dissolved in oily substances, balloon expansion volumes 10 ml and 16 ml) was “released in large quantities”. In addition, the amount released (balloon expanded with 10 ml oily solution, experiment 1, after 28 days, out of 500 mg) stood at 436 mg; the amount released (balloon expanded with 10 ml oily solution, experiment 2, after 29 days, out of 500 mg) is on record as 500 mg; the amount released (balloon expanded with 10 ml oily solution, experiment 3, after 22 days, out of 500 mg) worked out at 500 mg; the amount released (balloon expanded with 10 ml oily solution, experiment 4, after 63 days, out of 1000 mg) came to 1000 mg; the amount released (balloon expanded with 16 ml oily solution, after 21 days, out of 500 mg) came to 500 mg; the amount released (balloon expanded with 16 ml oily solution, after 21 days, out of 1500 g) worked out at 1086 mg. The amount released runs as follows: (balloon expanded with 16 ml oily solution, after 84 days, out of 500 mg) 500 mg; (balloon expanded with 16 ml oily solution, after 84 days, out of 1000 mg) 1000 mg; (balloon expanded with 16 ml oily solution, after 84 days, out of 1500 mg) 1500 mg.

The record behind these values is patent publication US20190151625A1, “DRUG DELIVERY APPARATUS AND METHOD” (INNOVENTIONS LTD., priority 2016, published 2019).
